# Measurements taken from paper PMC9469097 (Frontiers in Pharmacology, 2022).
# Read-outs that look alike come from different tables or passages of the source.
# Assays:
# [1] = biological target: CYP3A (Homo sapiens, UniProt P08684); assay: CYP3A-catalyzed midazolam 1′-hydroxylation in HLMs; type: biochemical; conditions: for IC50 at 30 min: human
# Method: Following incubation for 30 min at 37 °C, and 200 μl ice-cold acetonitrile containing internal standard (IS, 90 ng/ml) was subsequently added to quench the oxidative reaction. The mixture was then centrifuged at 20,000 ×g, 4 °C for 20 min, and the supernatant was quantified by LC-MS/MS analysis as described in Supplementary Table S2.
# [2] = Tissue distribution of PTAs of Styrax in rats; conditions: for exposure in rat plasma and rat liver: after single oral dose of Styrax (100 mg/kg)
# Method: Nine Male Sprague-Dawley rats (250–300 g) were purchased from Shanghai Sippe-Bk Lab Animal Co., Ltd. (Shanghai, China) and were fed in Experimental Animal Center of SHUTCM. […] The rats were fasted overnight before dosing but were free to drink water. Nine rats were randomly divided into three groups (1, 2, and 4 h). […] Blood samples were collected from the abdominal aorta, and the tissues (including the liver, duodenum, jejunum, ileum and colon) were removed rapidly and placed on ice. After then, the blood samples were centrifuged at 8,000 rpm, 4 °C for 10 min, and the supernatant was stored at −80 °C until analysis.
# Firstly, each tissue (such as liver, duodenum, jejunum, ileum, colon) was accurately weighed after sucking the water on tissue surface. Each tissue was put into an EP tube and then cut (3-5 times) by a scissor. After then, PBS (pH 7.4) and magnetic beads were added into EP tube, grind the tissue by a tissue grinder. The tissue grinding fluid was centrifuged at 9,000 g, 4 °C for 20 min. 50 μl tissue supernatant was diluted by adding 250 μl LC grade acetonitrile. The protein was precipitated by centrifuging at 20,000 ×g, 4 °C for 30 min and the supernatant was collected to determine the protein concentration by a BCA Protein Quantification Kit. After then, the concentrations of seven PTAs were determined by using UHPLC-Q-Orbitrap HRMS analysis.
# [3] = Stability tests for target pentacyclic triterpenoid acids
# [4] = biological target: CYP3A4 (Homo sapiens, UniProt P08684); assay: CYP3A4-catalyzed NEN 4-hydroxylation in HLMs (fluorescence-based assay)
# Sequence of CYP3A4 (P08684 whole entry): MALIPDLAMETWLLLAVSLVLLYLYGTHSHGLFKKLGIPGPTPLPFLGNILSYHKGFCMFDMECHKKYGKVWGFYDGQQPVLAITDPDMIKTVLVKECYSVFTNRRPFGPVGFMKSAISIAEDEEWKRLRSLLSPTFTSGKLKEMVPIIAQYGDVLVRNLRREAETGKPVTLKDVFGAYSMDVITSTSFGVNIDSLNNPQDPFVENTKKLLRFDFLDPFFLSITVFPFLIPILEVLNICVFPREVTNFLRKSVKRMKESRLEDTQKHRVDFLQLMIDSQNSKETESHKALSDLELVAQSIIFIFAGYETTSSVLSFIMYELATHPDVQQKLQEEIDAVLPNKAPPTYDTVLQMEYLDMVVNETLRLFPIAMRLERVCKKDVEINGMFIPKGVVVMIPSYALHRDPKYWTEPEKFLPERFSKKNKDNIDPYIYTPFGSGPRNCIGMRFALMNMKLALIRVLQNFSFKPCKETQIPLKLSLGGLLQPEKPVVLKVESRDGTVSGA
# Method: In brief, PBS (pH 7.4, 100 mM), herbal medicines (100 μg/ml, final concentration)/PTAs/solvent, NEN, G-6-P, G-6-PDH, MgCl2, and HLMs were added to the 96-well plate in turn, then the samples were vortexed and pre-incubated for 3 min at 37 °C. The oxidative reactions were initiated by adding β-NADP^+ to yield a final volume of 200 μl, then the formation rates of NEHN (hydroxylated metabolite of NEN) were continuously monitored for 30 min at 37 °C using a 96-well fluorescence microplate reader (SpectraMax® iD3, Molecular Devices, Austria). The percentage of organic solvent in all incubation is not over 1%.
# [5] = Pharmacokinetic interaction between Styrax and midazolam (i.v. and i.g.) in rats; conditions: for AUC(0-inf) / Cmax / half-life: male, Sprague-Dawley, rat, plasma; for half-life: t1/2, rats
# [6] = iv, 5 mg/kg, rats, midazolam i.v. 5 mg/kg, pretreated with Soybean oil
# [7] = iv, 5 mg/kg, rats, midazolam i.v. 5 mg/kg, pretreated with Styrax i.g. 100 mg/kg
# [8] = po, 20 mg/kg, rats, midazolam i.g. 20 mg/kg, pretreated with Soybean oil
# [9] = po, 20 mg/kg, rats, midazolam i.g. 20 mg/kg, pretreated with Styrax i.g. 100 mg/kg
# [10] = rats, midazolam i.g. 20 mg/kg, Styrax + midazolam vs Soybean oil + midazolam (fold)
# [11] = rats, midazolam i.v. 5 mg/kg, Styrax + midazolam vs Soybean oil + midazolam
# Sequence of CYP3A (P08684 2-503): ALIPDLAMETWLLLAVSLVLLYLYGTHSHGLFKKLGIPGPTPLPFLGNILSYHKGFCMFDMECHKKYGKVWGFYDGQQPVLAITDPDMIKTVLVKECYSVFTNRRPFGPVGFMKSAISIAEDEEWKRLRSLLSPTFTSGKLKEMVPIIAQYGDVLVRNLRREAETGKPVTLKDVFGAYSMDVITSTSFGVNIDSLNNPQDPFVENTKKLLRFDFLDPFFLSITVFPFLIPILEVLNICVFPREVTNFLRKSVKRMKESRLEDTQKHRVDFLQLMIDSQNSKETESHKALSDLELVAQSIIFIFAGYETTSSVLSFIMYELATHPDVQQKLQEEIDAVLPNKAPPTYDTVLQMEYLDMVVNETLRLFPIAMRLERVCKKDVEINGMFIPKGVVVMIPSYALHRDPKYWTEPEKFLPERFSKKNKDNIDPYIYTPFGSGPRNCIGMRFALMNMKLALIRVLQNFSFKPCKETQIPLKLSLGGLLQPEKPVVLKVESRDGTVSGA
structure (smiles),measurement,setting,value
C=C(C)[C@@H]1CC[C@]2(C(=O)O)CC[C@]3(C)[C@H](CC[C@@H]4[C@@]5(C)CC[C@H](O)C(C)(C)[C@@H]5CC[C@]43C)[C@@H]12 [betulinic acid],IC50 at 30 min,"[1]; microsomes, pH 7.4",7.74 ± 0.95 µM
same,exposure in rat plasma and rat liver,[2],could not be detected
same,"Stability, 4 ℃ Refrigerator (3 day, %)",[3]; nominal level 3.28 nmol/L,100.20%
same,"Stability, -20℃ freeze-thaw (3 times, %)",[3]; nominal level 3.28 nmol/L,104.81%
same,"Stability, Room temperature (24 h, %)",[3]; nominal level 3.28 nmol/L,98.14%
same,"Stability, 4 ℃ Refrigerator (3 day, %)",[3]; nominal level 20.48 nmol/L,102.78%
same,"Stability, -20℃ freeze-thaw (3 times, %)",[3]; nominal level 20.48 nmol/L,99.04%
same,"Stability, Room temperature (24 h, %)",[3]; nominal level 20.48 nmol/L,102.89%
same,"Stability, 4 ℃ Refrigerator (3 day, %)",[3]; nominal level 128.00 nmol/L,102.12%
same,"Stability, -20℃ freeze-thaw (3 times, %)",[3]; nominal level 128.00 nmol/L,110.33%
same,"Stability, Room temperature (24 h, %)",[3]; nominal level 128.00 nmol/L,103.89%
same,IC50,[4],4.11 ± 0.8 µM
C=C(C)[C@@H]1CC[C@]2(C(=O)O)CC[C@]3(C)[C@H](CC[C@@H]4[C@@]5(C)CCC(=O)C(C)(C)[C@@H]5CC[C@]43C)[C@@H]12 [betulonic acid],IC50,"[1]; midazolam 1′-hydroxylation, HLMs",2.51 ± 0.34 µM
same,IC50,"[4]; NEN 4-hydroxylation, HLMs",0.96 ± 0.14 µM
C[C@H]1[C@H](C)CC[C@]2(C(=O)O)CC[C@]3(C)C(=CC[C@@H]4[C@@]5(C)C[C@@H](O)[C@H](O)C(C)(C)[C@@H]5CC[C@]43C)[C@H]12 [corosolic acid],IC50 at 30 min,"[1]; human liver microsomes, pH 7.4, probe midazolam (1′-hydroxylation), midazolam 1′-hydroxylation, HLMs, read-out: IC50",32.2 ± 5.63 µM
same,"Stability, 4 ℃ Refrigerator (3 day, %)",[3]; nominal level 8.19 nmol/L,105.13%
same,"Stability, -20℃ freeze-thaw (3 times, %)",[3]; nominal level 8.19 nmol/L,104.46%
same,"Stability, Room temperature (24 h, %)",[3]; nominal level 8.19 nmol/L,99.78%
same,"Stability, 4 ℃ Refrigerator (3 day, %)",[3]; nominal level 51.20 nmol/L,104.14%
same,"Stability, -20℃ freeze-thaw (3 times, %)",[3]; nominal level 51.20 nmol/L,100.45%
same,"Stability, Room temperature (24 h, %)",[3]; nominal level 51.20 nmol/L,99.91%
same,"Stability, 4 ℃ Refrigerator (3 day, %)",[3]; nominal level 320.00 nmol/L,97.82%
same,"Stability, -20℃ freeze-thaw (3 times, %)",[3]; nominal level 320.00 nmol/L,98.31%
same,"Stability, Room temperature (24 h, %)",[3]; nominal level 320.00 nmol/L,96.69%
same,IC50,[4],41.9 ± 11.7 µM
C=C(C)[C@@H]1CC[C@]2(C(=O)O)CC[C@]3(C)[C@H](CC[C@@H]4[C@@]5(C)CC[C@@H](O)C(C)(C)[C@@H]5CC[C@]43C)[C@@H]12 [epibetulinic acid],IC50 at 30 min,"[1]; microsomes, pH 7.4",0.64 ± 0.1 µM
same,exposure in rat plasma and rat liver,[2],very low exposure levels
same,"Stability, 4 ℃ Refrigerator (3 day, %)",[3]; nominal level 3.28 nmol/L,113.34%
same,"Stability, -20℃ freeze-thaw (3 times, %)",[3]; nominal level 3.28 nmol/L,109.83%
same,"Stability, Room temperature (24 h, %)",[3]; nominal level 3.28 nmol/L,104.88%
same,"Stability, 4 ℃ Refrigerator (3 day, %)",[3]; nominal level 20.48 nmol/L,105.44%
same,"Stability, -20℃ freeze-thaw (3 times, %)",[3]; nominal level 20.48 nmol/L,106.94%
same,"Stability, Room temperature (24 h, %)",[3]; nominal level 20.48 nmol/L,96.59%
same,"Stability, 4 ℃ Refrigerator (3 day, %)",[3]; nominal level 128.00 nmol/L,107.19%
same,"Stability, -20℃ freeze-thaw (3 times, %)",[3]; nominal level 128.00 nmol/L,110.52%
same,"Stability, Room temperature (24 h, %)",[3]; nominal level 128.00 nmol/L,106.30%
same,IC50,[4],0.47 ± 0.08 µM
CC1(C)CC[C@]2(C(=O)O)CC[C@]3(C)C(=CC[C@@H]4[C@@]5(C)C[C@@H](O)[C@H](O)C(C)(C)[C@@H]5CC[C@]43C)[C@@H]2C1 [maslinic acid],IC50 at 30 min,"[1]; microsomes, pH 7.4",19.4 ± 3.04 µM
same,exposure in rat plasma and rat liver,[2],could not be detected
same,"Stability, 4 ℃ Refrigerator (3 day, %)",[3]; nominal level 8.19 nmol/L,101.20%
same,"Stability, -20℃ freeze-thaw (3 times, %)",[3]; nominal level 8.19 nmol/L,100.54%
same,"Stability, Room temperature (24 h, %)",[3]; nominal level 8.19 nmol/L,95.84%
same,"Stability, 4 ℃ Refrigerator (3 day, %)",[3]; nominal level 51.20 nmol/L,103.76%
same,"Stability, -20℃ freeze-thaw (3 times, %)",[3]; nominal level 51.20 nmol/L,100.05%
same,"Stability, Room temperature (24 h, %)",[3]; nominal level 51.20 nmol/L,99.51%
same,"Stability, 4 ℃ Refrigerator (3 day, %)",[3]; nominal level 320.00 nmol/L,97.98%
same,"Stability, -20℃ freeze-thaw (3 times, %)",[3]; nominal level 320.00 nmol/L,98.47%
same,"Stability, Room temperature (24 h, %)",[3]; nominal level 320.00 nmol/L,96.85%
same,IC50,[4],3.44 ± 0.77 µM
Cc1ncc2n1-c1ccc(Cl)cc1C(c1ccccc1F)=NC2 [midazolam],AUC(0-inf),[5]; [6],1320 ± 130 ng·h/mL
same,AUC(0-inf),[5]; [7],1200 ± 114 ng·h/mL
same,Cmax,[5]; [6],3260 ± 708 ng/mL
same,Cmax,[5]; [7],3370 ± 570 ng/mL
same,half-life,"[5]; iv, 5 mg/kg, midazolam i.v. 5 mg/kg, pretreated with Styrax i.g. 100 mg/kg",0.52 ± 0.14 h
same,AUC(0-inf),[5]; [8],211 ± 87.2 ng·h/mL
same,AUC(0-inf),[5]; [9],431 ± 217 ng·h/mL
same,Cmax,[5]; [8],129 ± 111 ng/mL
same,Cmax,[5]; [9],294 ± 277 ng/mL
same,half-life,"[5]; po, 20 mg/kg, midazolam i.g. 20 mg/kg, pretreated with Soybean oil",2.14 ± 0.28 h
same,half-life,"[5]; po, 20 mg/kg, midazolam i.g. 20 mg/kg, pretreated with Styrax i.g. 100 mg/kg",4.52 ± 3.96 h
same,Tmax Ratio,"[5]; rats, midazolam i.g. 20 mg/kg, Styrax + midazolam vs Soybean oil + midazolam",1.00
same,AUC(0-inf) Ratio,[5]; [10],2.04
same,Cmax Ratio,[5]; [10],2.28
same,t1/2 Ratio,[5]; [10],2.11
same,AUC(0-inf) Ratio,[5]; [11],0.91
same,Cmax Ratio,[5]; [11],1.03
same,Tmax Ratio,[5]; [11],1.00
same,t1/2 Ratio,[5]; [11],0.59
same,t1/2,"[5]; rats, midazolam i.v. 5 mg/kg, pretreated with Soybean oil",0.88 ± 0.28 h
CC1(C)CC[C@]2(C(=O)O)CC[C@]3(C)C(=CC[C@@H]4[C@@]5(C)CC[C@H](O)C(C)(C)[C@@H]5CC[C@]43C)[C@@H]2C1 [oleanolic acid],IC50 at 30 min,"[1]; microsomes, pH 7.4",14.8 ± 2.34 µM
same,exposure in rat plasma and rat liver,[2],very low exposure levels
same,"Stability, 4 ℃ Refrigerator (3 day, %)",[3]; nominal level 3.28 nmol/L,105.69%
same,"Stability, -20℃ freeze-thaw (3 times, %)",[3]; nominal level 3.28 nmol/L,103.79%
same,"Stability, Room temperature (24 h, %)",[3]; nominal level 3.28 nmol/L,103.28%
same,"Stability, 4 ℃ Refrigerator (3 day, %)",[3]; nominal level 20.48 nmol/L,102.19%
same,"Stability, -20℃ freeze-thaw (3 times, %)",[3]; nominal level 20.48 nmol/L,105.51%
same,"Stability, Room temperature (24 h, %)",[3]; nominal level 20.48 nmol/L,99.64%
same,"Stability, 4 ℃ Refrigerator (3 day, %)",[3]; nominal level 128.00 nmol/L,104.96%
same,"Stability, -20℃ freeze-thaw (3 times, %)",[3]; nominal level 128.00 nmol/L,105.16%
same,"Stability, Room temperature (24 h, %)",[3]; nominal level 128.00 nmol/L,99.00%
CC1(C)CC[C@]2(C(=O)O)CC[C@]3(C)C(=CC[C@@H]4[C@@]5(C)CCC(=O)C(C)(C)[C@@H]5CC[C@]43C)[C@@H]2C1 [oleanonic acid],IC50 at 30 min,"[1]; microsomes, pH 7.4",0.99 ± 0.09 µM
same,local exposure to rat jejunum,[2]; 1 h after single oral dose of Styrax (100 mg/kg),745.69 nM/mg tissue protein
same,exposure in rat plasma and rat liver,[2],very low exposure levels
same,"Stability, 4 ℃ Refrigerator (3 day, %)",[3]; nominal level 3.28 nmol/L,85.84%
same,"Stability, -20℃ freeze-thaw (3 times, %)",[3]; nominal level 3.28 nmol/L,91.69%
same,"Stability, Room temperature (24 h, %)",[3]; nominal level 3.28 nmol/L,86.92%
same,"Stability, 4 ℃ Refrigerator (3 day, %)",[3]; nominal level 20.48 nmol/L,103.95%
same,"Stability, -20℃ freeze-thaw (3 times, %)",[3]; nominal level 20.48 nmol/L,109.44%
same,"Stability, Room temperature (24 h, %)",[3]; nominal level 20.48 nmol/L,101.86%
same,"Stability, 4 ℃ Refrigerator (3 day, %)",[3]; nominal level 128.00 nmol/L,100.64%
same,"Stability, -20℃ freeze-thaw (3 times, %)",[3]; nominal level 128.00 nmol/L,113.69%
same,"Stability, Room temperature (24 h, %)",[3]; nominal level 128.00 nmol/L,98.85%
same,IC50,[4],0.8 ± 0.06 µM
